Laboratory results taken from ChEMBL document CHEMBL1201862, “PubChem BioAssay data set” (2004).
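Values below derive from 48-hour exposures of cells grown in 96-well plates, with endpoints linearly interpolated between the two concentrations bracketing the appropriate inhibition level. At the GI50, growth is halved.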 Activity calls are given as the source filed them. Cut-off read from the data, not from the text of the source: active = GI50 up to about 1.1 µM and inactive = higher.

Key:
Experiment in all cases: growth of human tumour cells (NCI), 48 h
[1] = test system: SK-MEL-5
[2] = test system: SF-539
[3] = test system: TK-10
[4] = test system: A549
[5] = test system: IGROV-1
[6] = test system: HCT-15
[7] = test system: OVCAR-4
[8] = test system: RPMI-8226
[9] = test system: HT-29
[10] = test system: SR
[11] = test system: SK-MEL-28
[12] = test system: SNB-75
[13] = test system: Malme-3M
[14] = test system: A498

SMILES | GI50 [1] | GI50 [2] | GI50 [3] | GI50 [4] | GI50 [5] | GI50 [6] | GI50 [7] | GI50 [8] | GI50 [9] | GI50 [10] | GI50 [11] | GI50 [12] | GI50 [13] | GI50 [14]
COC(=O)c1c(C(=O)OC)c2cc(C(=O)c3ccccc3)ccn2c1Cl | 16.2 µM (inactive) | 48.6 µM (inactive) | 67.1 µM (inactive) | 41.5 µM (inactive) | 53.1 µM (inactive) | 20.9 µM | 31.2 µM (inactive) | 16.3 µM (inactive) | 47.1 µM (inactive) | 15.4 µM (inactive) | 35.8 µM (inactive) | 12.9 µM (inactive) | 52.7 µM (inactive) | 
Cc1nc2c(o1)/C(=N\c1ccccc1)c1ccccc1C2=O | 2.56 µM (inactive) | 5.16 µM (inactive) | 35.1 µM (inactive) | 20.3 µM (inactive) | 17.9 µM (inactive) | 8.11 µM |  | 5.66 µM (inactive) | 18.7 µM (inactive) |  |  | 10.9 µM (inactive) | 3.98 µM (inactive) | 34.1 µM (inactive)
O=C1C=C[C@@]23CC1C(O)C[C@H]2C=Cc1ccccc13 (some centres not stated) | > 100 µM (inactive) | > 100 µM (inactive) |  | > 100 µM (inactive) | > 100 µM (inactive) | 82.2 µM | > 100 µM (inactive) | > 100 µM (inactive) | > 100 µM (inactive) |  |  | 91.6 µM (inactive) | > 100 µM (inactive) | > 100 µM (inactive)
O=[N+]([O-])c1cccc(C2=NOC(C3CCCCC3)C2)c1 (configuration not stated) | > 100 µM (inactive) | > 100 µM (inactive) | > 100 µM (inactive) | > 100 µM (inactive) | > 100 µM (inactive) | > 100 µM | > 100 µM (inactive) |  | 82 µM (inactive) |  | > 100 µM (inactive) | > 100 µM (inactive) | > 100 µM (inactive) | > 100 µM (inactive)
CC1=CCC(O)C=CC(C)C(O)C(C)C=C(C)C(=O)c2c(O)c(C)cc3c2C(=O)C(N)=C(NC(=O)/C=C\C=C/C=CC(C)C(O)CC1=O)C3=O (configuration not stated) | > 100 µM (inactive) | > 100 µM (inactive) | > 100 µM (inactive) | > 100 µM (inactive) | > 100 µM (inactive) | > 100 µM | > 100 µM (inactive) | > 100 µM (inactive) | > 100 µM (inactive) |  | > 100 µM (inactive) | > 100 µM (inactive) | 30.1 µM (inactive) | > 100 µM (inactive)
COc1cc([C@H]2c3cc4c(cc3[C@H](NCc3ccc(F)cc3)C3COC(=O)[C@H]32)OCO4)cc(OC)c1O (some centres not stated) |  | 1.79 µM (inactive) | 15.4 µM (inactive) |  | 1.44 µM (inactive) | 2.29 µM | 37.6 µM (inactive) | 2.31 µM (inactive) | 11.2 µM (inactive) |  | 11 µM (inactive) | 2.08 µM (inactive) | 3.79 µM (inactive) | 2.19 µM (inactive)
O=C1c2ccccc2C(=O)C1(Cl)C1(S(=O)(=O)O)c2ccccc2-c2ccccc21 | > 100 µM (inactive) | > 100 µM (inactive) | > 100 µM (inactive) | > 100 µM (inactive) | > 100 µM (inactive) | > 100 µM | > 100 µM (inactive) | > 100 µM (inactive) | > 100 µM (inactive) | > 100 µM (inactive) | > 100 µM (inactive) | > 100 µM (inactive) | > 100 µM (inactive) | > 100 µM (inactive)
CC(=O)c1ccc(NC(=O)C(=O)C(C(=O)c2ccc(Cl)c(Cl)c2)C2OC(=O)c3ccccc32)cc1 (configuration not stated) |  |  | 31.4 µM (inactive) | 21.4 µM (inactive) | 29.7 µM (inactive) | 16.8 µM | 26.5 µM (inactive) |  | 25.3 µM (inactive) | > 100 µM (inactive) |  |  | 5.97 µM (inactive) | 16.6 µM (inactive)
O=C(c1ccccc1)N1CCN2CCN=C(c3ccccc3)C21c1ccccc1 (configuration not stated) | > 100 µM (inactive) | 71.3 µM (inactive) | > 100 µM (inactive) | 95.3 µM (inactive) | > 100 µM (inactive) |  | 29.4 µM (inactive) | 25.5 µM (inactive) | > 100 µM (inactive) |  | > 100 µM (inactive) | 51.3 µM (inactive) | 35.5 µM (inactive) | > 100 µM (inactive)
COc1c(C)cc(O)cc1C=O | > 100 µM (inactive) | > 100 µM (inactive) | > 100 µM (inactive) | > 100 µM (inactive) | > 100 µM (inactive) | > 100 µM | > 100 µM (inactive) | > 100 µM (inactive) | > 100 µM (inactive) |  | > 100 µM (inactive) | > 100 µM (inactive) | > 100 µM (inactive) | 
O=P(CN1CCOCC1)(c1ccccc1)c1ccccc1 | > 100 µM (inactive) | > 100 µM (inactive) | > 100 µM (inactive) | > 100 µM (inactive) | > 100 µM (inactive) | > 100 µM | > 100 µM (inactive) | > 100 µM (inactive) | > 100 µM (inactive) |  | > 100 µM (inactive) | > 100 µM (inactive) | > 100 µM (inactive) | > 100 µM (inactive)
CN(C)c1ccc(/C=C2\CCc3ccccc3C2=O)cc1Br | 25.8 µM (inactive) | > 100 µM (inactive) | > 100 µM (inactive) | 51.3 µM (inactive) |  | 71.1 µM | 83.9 µM (inactive) | 24.8 µM (inactive) | 33.1 µM (inactive) | 29.2 µM (inactive) | 71.1 µM (inactive) | > 100 µM (inactive) | 42.8 µM (inactive) | 
Cc1c2n(c(=O)[nH]c1=O)C1OC(CO)C(O2)C1N=[N+]=[N-] (configuration not stated) | > 100 µM (inactive) | > 100 µM (inactive) | > 100 µM (inactive) | > 100 µM (inactive) | > 100 µM (inactive) | > 100 µM | > 100 µM (inactive) | > 100 µM (inactive) | > 100 µM (inactive) | > 100 µM (inactive) | > 100 µM (inactive) | > 100 µM (inactive) |  | 78 µM (inactive)
COc1ccc(C2S/C(=C\c3cccc(OC)c3)C(=O)N2NC(=O)Cc2ccccc2)cc1 (configuration not stated) | > 100 µM (inactive) | > 100 µM (inactive) | > 100 µM (inactive) | > 100 µM (inactive) | > 100 µM (inactive) | > 100 µM | > 100 µM (inactive) | > 100 µM (inactive) | > 100 µM (inactive) | > 100 µM (inactive) | > 100 µM (inactive) | > 100 µM (inactive) | > 100 µM (inactive) | > 100 µM (inactive)
Cc1cnc2c(C)ccc([N+](=O)[O-])c2c1NCCCN(C)C |  | > 100 µM (inactive) | > 100 µM (inactive) | > 100 µM (inactive) | > 100 µM (inactive) | > 100 µM | > 100 µM (inactive) | > 100 µM (inactive) | > 100 µM (inactive) | > 100 µM (inactive) | > 100 µM (inactive) |  | 73.6 µM (inactive) | 
CC(=O)NC1=C(NCCN(C)C)C(=O)c2ccccc2C1=O | 7.21 µM (inactive) | 11.7 µM (inactive) | 27.8 µM (inactive) | 15 µM (inactive) | 14.7 µM (inactive) | 9.51 µM | 8.93 µM (inactive) |  | 13.8 µM (inactive) | 41.3 µM (inactive) | > 50 µM (inactive) | 25.5 µM (inactive) | 7.62 µM (inactive) | 
CCc1cc(C(=O)OC)cn1C(=N)c1ccc(Cl)cc1 | > 100 µM (inactive) | > 100 µM (inactive) | > 100 µM (inactive) | > 100 µM (inactive) | > 100 µM (inactive) | > 100 µM | > 100 µM (inactive) | > 100 µM (inactive) | > 100 µM (inactive) |  | > 100 µM (inactive) | 87.5 µM (inactive) | > 100 µM (inactive) | > 100 µM (inactive)
CC1=Nc2ccccc2NC(c2ccoc2)C1 (configuration not stated) | > 100 µM (inactive) | > 100 µM (inactive) | > 100 µM (inactive) | > 100 µM (inactive) | > 100 µM (inactive) | > 100 µM | > 100 µM (inactive) | > 100 µM (inactive) | > 100 µM (inactive) | > 100 µM (inactive) | > 100 µM (inactive) | > 100 µM (inactive) | > 100 µM (inactive) | > 100 µM (inactive)
CCCCCCCCOCC(COC(=O)CCCCCCC)OC(=O)CCCCCCC (configuration not stated) | > 100 µM (inactive) |  | > 100 µM (inactive) | > 100 µM (inactive) | > 100 µM (inactive) | > 100 µM | > 100 µM (inactive) | > 100 µM (inactive) | > 100 µM (inactive) | 53 µM (inactive) | > 100 µM (inactive) |  | > 100 µM (inactive) | > 100 µM (inactive)
O=[N+]([O-])c1ccc(Sc2c3ccccc3nc3ccccc23)cc1 | > 100 µM (inactive) | > 100 µM (inactive) |  | > 100 µM (inactive) | > 100 µM (inactive) | > 100 µM | > 100 µM (inactive) | > 100 µM (inactive) | > 100 µM (inactive) |  | > 100 µM (inactive) | > 100 µM (inactive) | > 100 µM (inactive) | 
Cc1cc(N(CCC#N)CCC#N)ccc1/N=N/c1ccc(Br)cc1 | 12.3 µM (inactive) | 17.8 µM (inactive) | 14.3 µM (inactive) | 15.1 µM (inactive) | 10.9 µM (inactive) | 5.56 µM | > 100 µM (inactive) | > 45.9 µM (inactive) | > 100 µM (inactive) |  | > 100 µM (inactive) |  | 53.6 µM (inactive) | 13.7 µM (inactive)
COC1=C2C[C@H](O)C(C)C[C@@]2(OC)OC1=O (some centres not stated) | > 100 µM (inactive) | > 100 µM (inactive) |  | > 100 µM (inactive) | > 100 µM (inactive) | > 100 µM | > 100 µM (inactive) | > 100 µM (inactive) | > 100 µM (inactive) |  | > 100 µM (inactive) | > 100 µM (inactive) | > 100 µM (inactive) | > 100 µM (inactive)
